Source: ChEMBL document CHEMBL1909046, “DrugMatrix in vitro pharmacology data”

Legend:
Cytochrome P450 2C19 = Cytochrome P450 2C19 (Homo sapiens, UniProt P33261)
Cytochrome P450 2C9 = Cytochrome P450 2C9 (Homo sapiens, UniProt P11712)
Glucocorticoid receptor = target: T1, Glucocorticoid receptor (Homo sapiens, UniProt P04150); test: biochemical
T1 sequence (P04150 whole entry): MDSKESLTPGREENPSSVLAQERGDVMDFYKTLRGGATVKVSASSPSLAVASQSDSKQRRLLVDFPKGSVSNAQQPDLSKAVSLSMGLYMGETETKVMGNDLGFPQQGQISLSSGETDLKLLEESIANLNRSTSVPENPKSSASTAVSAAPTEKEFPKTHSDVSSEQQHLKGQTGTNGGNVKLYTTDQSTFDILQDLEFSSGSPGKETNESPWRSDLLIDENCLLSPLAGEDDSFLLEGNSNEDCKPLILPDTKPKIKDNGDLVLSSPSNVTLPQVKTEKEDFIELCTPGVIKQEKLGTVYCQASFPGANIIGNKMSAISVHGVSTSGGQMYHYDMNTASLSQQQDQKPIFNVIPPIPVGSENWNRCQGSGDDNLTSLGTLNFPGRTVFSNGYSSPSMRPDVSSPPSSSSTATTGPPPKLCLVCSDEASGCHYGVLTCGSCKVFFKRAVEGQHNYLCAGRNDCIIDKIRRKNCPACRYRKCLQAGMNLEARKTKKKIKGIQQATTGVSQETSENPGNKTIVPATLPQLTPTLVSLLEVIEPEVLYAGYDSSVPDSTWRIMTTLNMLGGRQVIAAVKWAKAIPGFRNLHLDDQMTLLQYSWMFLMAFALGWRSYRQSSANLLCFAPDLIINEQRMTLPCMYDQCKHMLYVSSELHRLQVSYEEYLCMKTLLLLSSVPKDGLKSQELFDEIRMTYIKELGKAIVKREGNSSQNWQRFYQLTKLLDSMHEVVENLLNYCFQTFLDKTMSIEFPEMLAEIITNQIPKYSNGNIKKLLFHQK

Cytochrome P450 2D6 = Cytochrome P450 2D6 (Homo sapiens, UniProt P10635)
Androgen receptor = target: T2, Androgen receptor (Rattus norvegicus, UniProt P15207)
T2 sequence (P15207 whole entry): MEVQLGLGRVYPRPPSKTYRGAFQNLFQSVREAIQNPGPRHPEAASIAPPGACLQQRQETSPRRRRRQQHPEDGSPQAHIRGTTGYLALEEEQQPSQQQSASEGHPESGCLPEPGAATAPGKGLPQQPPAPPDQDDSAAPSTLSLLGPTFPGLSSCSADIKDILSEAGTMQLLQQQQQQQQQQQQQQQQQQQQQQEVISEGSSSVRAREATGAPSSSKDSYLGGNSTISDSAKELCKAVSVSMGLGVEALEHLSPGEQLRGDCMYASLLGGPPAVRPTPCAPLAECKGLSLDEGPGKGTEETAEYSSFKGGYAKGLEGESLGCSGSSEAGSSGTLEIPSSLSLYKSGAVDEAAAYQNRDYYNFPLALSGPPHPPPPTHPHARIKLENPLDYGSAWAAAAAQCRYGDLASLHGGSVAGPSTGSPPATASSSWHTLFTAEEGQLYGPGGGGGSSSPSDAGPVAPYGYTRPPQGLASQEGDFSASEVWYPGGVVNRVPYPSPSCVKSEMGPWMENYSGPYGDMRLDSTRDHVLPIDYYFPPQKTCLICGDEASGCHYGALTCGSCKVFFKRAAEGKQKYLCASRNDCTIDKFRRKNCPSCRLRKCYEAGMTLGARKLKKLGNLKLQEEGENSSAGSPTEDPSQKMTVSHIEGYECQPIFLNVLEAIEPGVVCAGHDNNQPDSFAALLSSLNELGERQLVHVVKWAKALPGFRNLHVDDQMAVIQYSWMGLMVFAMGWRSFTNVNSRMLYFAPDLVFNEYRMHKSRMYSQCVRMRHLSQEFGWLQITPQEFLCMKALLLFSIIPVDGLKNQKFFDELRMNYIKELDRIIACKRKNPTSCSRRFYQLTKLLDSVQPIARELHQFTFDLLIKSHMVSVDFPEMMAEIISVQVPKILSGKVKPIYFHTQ

Cytochrome P450 1A2 = target: T3, Cytochrome P450 1A2 (Homo sapiens, UniProt P05177)
T3 sequence (P05177 whole entry): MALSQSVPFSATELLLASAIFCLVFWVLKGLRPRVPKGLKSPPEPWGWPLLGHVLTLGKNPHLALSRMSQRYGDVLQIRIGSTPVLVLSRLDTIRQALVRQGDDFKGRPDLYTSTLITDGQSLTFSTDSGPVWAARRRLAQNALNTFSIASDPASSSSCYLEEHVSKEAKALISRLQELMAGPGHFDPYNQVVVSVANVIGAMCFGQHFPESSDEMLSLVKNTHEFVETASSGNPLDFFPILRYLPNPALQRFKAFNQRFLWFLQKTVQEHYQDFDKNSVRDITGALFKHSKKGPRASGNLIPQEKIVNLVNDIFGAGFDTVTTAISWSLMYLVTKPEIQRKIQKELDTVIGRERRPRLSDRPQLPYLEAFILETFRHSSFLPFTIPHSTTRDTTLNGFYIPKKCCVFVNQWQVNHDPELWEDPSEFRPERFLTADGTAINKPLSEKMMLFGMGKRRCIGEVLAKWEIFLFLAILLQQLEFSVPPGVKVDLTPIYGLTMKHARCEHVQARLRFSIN

Cytochrome P450 3A4 = Cytochrome P450 3A4 (Homo sapiens, UniProt P08684)
Note: in other assays of this panel Not Active means under 50% inhibition at 10 µM.

Sequence of Cytochrome P450 2D6 (P10635 whole entry): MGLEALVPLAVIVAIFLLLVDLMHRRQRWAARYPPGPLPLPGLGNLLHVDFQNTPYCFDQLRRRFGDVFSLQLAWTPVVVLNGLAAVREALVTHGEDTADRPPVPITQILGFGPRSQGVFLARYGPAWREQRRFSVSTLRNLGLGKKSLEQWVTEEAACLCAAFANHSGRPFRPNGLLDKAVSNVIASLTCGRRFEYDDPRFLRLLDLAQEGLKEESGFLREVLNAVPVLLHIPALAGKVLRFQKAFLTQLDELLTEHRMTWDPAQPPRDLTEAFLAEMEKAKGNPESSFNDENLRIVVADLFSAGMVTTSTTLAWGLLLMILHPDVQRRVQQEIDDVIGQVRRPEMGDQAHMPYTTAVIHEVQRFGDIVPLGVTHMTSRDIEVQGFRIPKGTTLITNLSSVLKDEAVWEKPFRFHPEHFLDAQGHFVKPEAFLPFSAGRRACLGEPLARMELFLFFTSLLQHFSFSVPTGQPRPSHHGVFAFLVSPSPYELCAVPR
Sequence of Cytochrome P450 2C19 (P33261 whole entry): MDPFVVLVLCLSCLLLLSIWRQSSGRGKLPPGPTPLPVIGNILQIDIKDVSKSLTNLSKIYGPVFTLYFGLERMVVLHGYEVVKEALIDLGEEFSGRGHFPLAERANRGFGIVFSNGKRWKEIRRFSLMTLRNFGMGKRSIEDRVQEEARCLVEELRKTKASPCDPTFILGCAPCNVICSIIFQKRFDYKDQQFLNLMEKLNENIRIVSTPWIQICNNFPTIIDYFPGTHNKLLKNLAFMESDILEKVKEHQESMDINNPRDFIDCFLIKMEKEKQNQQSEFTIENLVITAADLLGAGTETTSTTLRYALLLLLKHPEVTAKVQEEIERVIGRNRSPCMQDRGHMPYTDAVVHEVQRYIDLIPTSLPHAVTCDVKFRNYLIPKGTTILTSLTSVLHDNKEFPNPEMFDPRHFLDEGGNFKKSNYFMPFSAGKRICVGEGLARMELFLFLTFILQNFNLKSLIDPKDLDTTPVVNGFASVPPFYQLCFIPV
Sequence of Cytochrome P450 2C9 (P11712 whole entry): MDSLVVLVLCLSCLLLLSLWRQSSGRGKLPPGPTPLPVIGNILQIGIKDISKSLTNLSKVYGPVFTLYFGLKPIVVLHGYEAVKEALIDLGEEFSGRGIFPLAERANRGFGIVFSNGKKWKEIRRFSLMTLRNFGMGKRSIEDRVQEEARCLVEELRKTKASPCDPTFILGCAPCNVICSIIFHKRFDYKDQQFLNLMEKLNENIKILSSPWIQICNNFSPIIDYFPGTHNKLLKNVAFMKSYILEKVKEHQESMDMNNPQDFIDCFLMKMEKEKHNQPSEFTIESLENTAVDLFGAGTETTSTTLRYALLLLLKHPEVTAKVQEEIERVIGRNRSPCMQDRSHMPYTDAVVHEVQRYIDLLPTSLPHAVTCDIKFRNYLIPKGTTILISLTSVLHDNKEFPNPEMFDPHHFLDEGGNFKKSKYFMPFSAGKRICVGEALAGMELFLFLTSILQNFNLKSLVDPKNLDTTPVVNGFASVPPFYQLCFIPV
Sequence of Cytochrome P450 3A4 (P08684 whole entry): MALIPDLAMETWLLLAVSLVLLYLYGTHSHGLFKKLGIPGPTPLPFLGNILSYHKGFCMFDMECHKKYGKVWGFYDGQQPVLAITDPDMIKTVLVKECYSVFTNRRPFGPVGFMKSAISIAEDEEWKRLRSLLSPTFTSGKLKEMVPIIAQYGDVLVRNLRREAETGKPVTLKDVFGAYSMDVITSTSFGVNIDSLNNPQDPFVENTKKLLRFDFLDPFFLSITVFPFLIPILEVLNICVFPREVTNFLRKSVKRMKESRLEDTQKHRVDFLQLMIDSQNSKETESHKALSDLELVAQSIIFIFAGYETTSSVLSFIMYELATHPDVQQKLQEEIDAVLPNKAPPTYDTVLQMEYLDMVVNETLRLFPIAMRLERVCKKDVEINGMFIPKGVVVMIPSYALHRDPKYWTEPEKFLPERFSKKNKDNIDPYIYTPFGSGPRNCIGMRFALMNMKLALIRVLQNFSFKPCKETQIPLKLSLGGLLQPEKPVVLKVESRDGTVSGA

Row | Molecule | IC50 (Cytochrome P450 2C19) [µM] | IC50 (Androgen receptor) | further results
1 | Clc1ccccc1C(c1ccccc1)(c1ccccc1)n1ccnc1 [CLOTRIMAZOLE] | 0.016 |  | IC50 (Cytochrome P450 2C9): 16 nM; IC50 (Glucocorticoid receptor): 3260 nM; Ki (Glucocorticoid receptor): 1480 nM
2 | CC(CCc1ccccc1)NCC(O)c1ccc(O)c(C(N)=O)c1 (stereo not given) [LABETALOL] |  |  | IC50 (Cytochrome P450 2D6): 0.8 µM
3 | CN1CCN2c3ccccc3Cc3ccccc3C2C1 (stereo not given) [MIANSERIN] |  | Not Active | 
4 | O=C1c2c(O)ccc(O)c2C(=O)c2c(NCCNCCO)ccc(NCCNCCO)c21 [MITOXANTRONE] |  | Not Active | 
5 | CC(C)(O)c1ccccc1CC[C@@H](SCC1(CC(=O)O)CC1)c1cccc(/C=C/c2ccc3ccc(Cl)cc3n2)c1 [MONTELUKAST] |  | Not Active | 
6 | COc1c(C)c2c(c(O)c1C/C=C(\C)CCC(=O)OCCN1CCOCC1)C(=O)OC2 [MYCOPHENOLATE MOFETIL] |  | Not Active | 
7 | NNc1ccccc1 [PHENYLHYDRAZINE] | 5 |  | IC50 (Cytochrome P450 1A2): 8 µM; IC50 (Cytochrome P450 2C9): 6000 nM; IC50 (Cytochrome P450 2D6): 3 µM
8 | CC(=O)S[C@@H]1CC2=CC(=O)CC[C@]2(C)[C@H]2CC[C@@]3(C)[C@@H](CC[C@@]34CCC(=O)O4)[C@H]12 [SPIRONOLACTONE] | 3 |  | IC50 (Glucocorticoid receptor): 1900 nM; Ki (Glucocorticoid receptor): 865 nM
9 | C[C@]12Cc3c[nH]nc3C[C@@H]1CC[C@@H]1[C@@H]2CC[C@@]2(C)[C@H]1CC[C@]2(C)O [STANOZOLOL] | 0.048 |  | IC50 (Cytochrome P450 2C9): 1130 nM; IC50 (Cytochrome P450 2D6): 9.27 µM
10 | CN(N=O)C(=O)N[C@@H](C=O)[C@@H](O)[C@H](O)[C@H](O)CO [STREPTOZOCIN] |  | Not Active | 
11 | C=CC[C@@H]1/C=C(\C)C[C@H](C)C[C@H](OC)[C@H]2O[C@@](O)(C(=O)C(=O)N3CCCC[C@H]3C(=O)O[C@H](/C(C)=C/[C@@H]3CC[C@@H](O)[C@H](OC)C3)[C@H](C)[C@@H](O)CC1=O)[C@H](C)C[C@@H]2OC [TACROLIMUS ANHYDROUS] |  | Not Active | IC50 (Cytochrome P450 3A4): 1000 nM
12 | CN(C)[C@@H]1C(O)=C(C(N)=O)C(=O)[C@@]2(O)C(O)=C3C(=O)c4c(O)cccc4[C@@](C)(O)[C@H]3C[C@@H]12 [TETRACYCLINE] |  | Not Active | 
13 | c1ccc2[nH]c(-c3cscn3)nc2c1 [THIABENDAZOLE] |  | Not Active | IC50 (Cytochrome P450 1A2): 0.8 µM
14 | CSc1ccc2c(c1)N(CCC1CCCCN1C)c1ccccc1S2 (stereo not given) [THIORIDAZINE] | 6.38 |  | IC50 (Cytochrome P450 1A2): 9.33 µM
15 | COc1cccc(C2(O)CCCCC2CN(C)C)c1 (stereo not given) [TRAMADOL] |  | Not Active | 
16 | IVERMECTIN |  | Not Active | Ki (Androgen receptor): Not Active
